Converted amounts (≈) assume the structure as drawn.
Assays:
Assay in all cases: in vitro antibacterial evaluation, MIC by broth dilution
Type in all cases: cell-based
Enterococcus sp. = details: broth dilution, 18 hours at 35° C.; for MIC Enterococcus faecalis (GC 2242): strain GC 2242; for MIC Enterococcus faecalis (GC 4552): strain GC 4552
Procedure, shortened: (§1)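 Broth dilution per NCCLS M7-A2 in Mueller-Hinton II medium, inoculum 5×10^5 CFU/mL, antibiotic range 64-0.06 μg/mL. MIC taken as lowest concentration inhibiting growth; Gram-positive panel includes recent clinical isolates resistant to methicillin, penicillin and/or vancomycin.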

Escherichia coli = details: 18 hours at 35° C.
Procedure, shortened: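 Read-out: the lowest concentration at which the test strain fails to grow. Serial dilutions (64-0.06 μg/mL) in Muller-Hinton II […], 5×10^5 CFU/mL inoculum, NCCLS M7-A2 procedure.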

Staphylococcus sp. = details: broth dilution, 18 hours at 35° C.
Procedure, shortened: as §1

Streptococcus sp. = details: broth dilution, 18 hours at 35° C.; for MIC Streptococcus agalactiae (GC 4564): strain GC 4564
Procedure, shortened: as §1

[1] = Enterococcus faecalis (ATCC 29212)
[2] = Enterococcus faecalis (GC 4553)
[3] = Enterococcus faecalis (GC 4554)

## CC(C)CC(=O)OCC1OC(OC2C(CO)OC(Oc3ccc(CC4NC(=O)C(Cc5ccccc5)NC(=O)CNC(=O)C(CO)NC(=O)C(C(O)C5CNC(=N)N5C5OC(CO)C(O)C(O)C5O)NC(=O)C(C(O)C5CNC(=N)N5)NC4=O)cc3)C(O)C2O)C(O)C(O)C1O (centres unmarked) [Example 283c, Cyclo[glycylphenylalanyl-O-[4-O-[6-O-(3-methylbutanoyl)-hexopyranosyl]hexopyranosyl]tyrosyl-3-(2-iminoimidazolidin-4-yl)seryl-3-(3-hexopyranosyl-2-iminoimidazolidin-4-yl)serylseryl]]
Enterococcus sp.; Enterococcus avium (GC 4558)
  MIC Enterococcus avium (GC 4558): 128 µg/mL (≈ 93.7 µM)
Enterococcus sp.; [1]
  MIC Enterococcus faecalis (ATCC 29212): 128 µg/mL (≈ 93.7 µM)
Enterococcus sp.; [2]
  MIC Enterococcus faecalis (GC 4553): 128 µg/mL (≈ 93.7 µM)
Enterococcus sp.; [3]
  MIC Enterococcus faecalis (GC 4554): >128 µg/mL
Enterococcus sp.; Enterococcus faecalis (GC 6189)
  MIC Enterococcus faecalis (GC 6189): 128 µg/mL (≈ 93.7 µM)
Enterococcus sp.; Enterococcus faecium (GC 2243)
  MIC Enterococcus faecium (GC 2243): 128 µg/mL (≈ 93.7 µM)
Enterococcus sp.; Enterococcus faecium (GC 4556)
  MIC Enterococcus faecium (GC 4556): 128 µg/mL (≈ 93.7 µM)
Enterococcus sp.; Enterococcus faecium (GC 4557)
  MIC Enterococcus faecium (GC 4557): 16 µg/mL (≈ 11.7 µM)
Enterococcus sp.; strain ATCC 29212
  MIC Enterococcus faecalis (ATCC 29212): 128 µg/mL (≈ 93.7 µM)
Enterococcus sp.
  MIC Enterococcus faecalis (GC 2242): 128 µg/mL (≈ 93.7 µM)
  MIC Enterococcus faecalis (GC 4552): 128 µg/mL (≈ 93.7 µM)
Enterococcus sp.; strain GC 2243
  MIC Enterococcus faecium (GC 2243): 128 µg/mL (≈ 93.7 µM)
Enterococcus sp.; strain GC 2691
  MIC Enterococcus faecalis (GC 2691): 128 µg/mL (≈ 93.7 µM)
Enterococcus sp.; strain GC 3059
  MIC Enterococcus faecalis (GC 3059): >128 µg/mL
Enterococcus sp.; strain GC 4553
  MIC Enterococcus faecalis (GC 4553): 128 µg/mL (≈ 93.7 µM)
Enterococcus sp.; strain GC 4554
  MIC Enterococcus faecalis (GC 4554): >128 µg/mL
Enterococcus sp.; strain GC 4556
  MIC Enterococcus faecium (GC 4556): 128 µg/mL (≈ 93.7 µM)
Enterococcus sp.; strain GC 4557
  MIC Enterococcus faecium (GC 4557): 16 µg/mL (≈ 11.7 µM)
Enterococcus sp.; strain GC 4558
  MIC Enterococcus avium (GC 4558): 128 µg/mL (≈ 93.7 µM)
Enterococcus sp.; strain GC 6189
  MIC Enterococcus faecalis (GC 6189): 128 µg/mL (≈ 93.7 µM)
Escherichia coli
  MIC Escherichia coli (ATCC 25922): 128 µg/mL (≈ 93.7 µM)
  MIC Escherichia coli (GC 4559): 128 µg/mL (≈ 93.7 µM)
  MIC Escherichia coli (GC 4560): 8 µg/mL (≈ 5.86 µM)
Staphylococcus sp.
  MIC Coagulase Negative Staphylococcus (GC 4547): 16 µg/mL (≈ 11.7 µM)
  MIC Coagulase Negative Staphylococcus (GC 4548): 8 µg/mL (≈ 5.86 µM)
  MIC Coagulase Negative Staphylococcus (GC 4549): 16 µg/mL (≈ 11.7 µM)
  MIC Coagulase Negative Staphylococcus (GC 4551): 32 µg/mL (≈ 23.4 µM)
  MIC Staphylococcus aureus (ATCC 29213): 32 µg/mL (≈ 23.4 µM)
  MIC Staphylococcus aureus (GC 1131): 32 µg/mL (≈ 23.4 µM)
  MIC Staphylococcus aureus (GC 3051): 32 µg/mL (≈ 23.4 µM)
  MIC Staphylococcus aureus (GC 3053): 64 µg/mL (≈ 46.9 µM)
  MIC Staphylococcus aureus (GC 4541): 32 µg/mL (≈ 23.4 µM)
  MIC Staphylococcus aureus (GC 4542): 32 µg/mL (≈ 23.4 µM)
  MIC Staphylococcus aureus (GC 4544): 32 µg/mL (≈ 23.4 µM)
  MIC Staphylococcus aureus (GC 4545): 16 µg/mL (≈ 11.7 µM)
  MIC Staphylococcus aureus-SMITH (GC 4543): 16 µg/mL (≈ 11.7 µM)
  MIC Staphylococcus haemolyticus (GC 4546): 16 µg/mL (≈ 11.7 µM)
Staphylococcus sp.; strain ATCC 29213
  MIC Staphylococcus aureus (ATCC 29213): 32 µg/mL (≈ 23.4 µM)
Staphylococcus sp.; strain GC 1131
  MIC Staphylococcus aureus (GC 1131): 32 µg/mL (≈ 23.4 µM)
Staphylococcus sp.; strain GC 3051
  MIC Staphylococcus aureus (GC 3051): 32 µg/mL (≈ 23.4 µM)
Staphylococcus sp.; strain GC 3053
  MIC Staphylococcus aureus (GC 3053): 64 µg/mL (≈ 46.9 µM)
Staphylococcus sp.; strain GC 4541
  MIC Staphylococcus aureus (GC 4541): 32 µg/mL (≈ 23.4 µM)
Staphylococcus sp.; strain GC 4542
  MIC Staphylococcus aureus (GC 4542): 32 µg/mL (≈ 23.4 µM)
Staphylococcus sp.; strain GC 4544
  MIC Staphylococcus aureus (GC 4544): 32 µg/mL (≈ 23.4 µM)
Staphylococcus sp.; strain GC 4545
  MIC Staphylococcus aureus (GC 4545): 16 µg/mL (≈ 11.7 µM)
Staphylococcus sp.; strain GC 4546
  MIC Staphylococcus haemolyticus (GC 4546): 16 µg/mL (≈ 11.7 µM)
Staphylococcus sp.; strain GC 4547
  MIC Coagulase Negative Staphylococcus (GC 4547): 16 µg/mL (≈ 11.7 µM)
Staphylococcus sp.; strain GC 4548
  MIC Coagulase Negative Staphylococcus (GC 4548): 8 µg/mL (≈ 5.86 µM)
Staphylococcus sp.; strain GC 4549
  MIC Coagulase Negative Staphylococcus (GC 4549): 16 µg/mL (≈ 11.7 µM)
Staphylococcus sp.; strain GC 4551
  MIC Coagulase Negative Staphylococcus (GC 4551): 32 µg/mL (≈ 23.4 µM)
Staphylococcus sp.; strain SMITH GC 4543
  MIC Staphylococcus aureus-SMITH (GC 4543): 16 µg/mL (≈ 11.7 µM)
Streptococcus sp.; strain ATCC 6301
  MIC Streptococcus pneumoniae (ATCC 6301): 8 µg/mL (≈ 5.86 µM)
Streptococcus sp.; strain GC 1894
  MIC Streptococcus pneumoniae (GC 1894): 4 µg/mL (≈ 2.93 µM)
Streptococcus sp.; strain GC 4563
  MIC Streptococcus pyogenes (GC 4563): 16 µg/mL (≈ 11.7 µM)
Streptococcus sp.
  MIC Streptococcus agalactiae (GC 4564): 16 µg/mL (≈ 11.7 µM)
Streptococcus sp.; strain GC 4565
  MIC Streptococcus pneumoniae (GC 4565): 8 µg/mL (≈ 5.86 µM)

## CC(C)CC(=O)OC1C(OC2C(CO)OC(Oc3ccc(CC4NC(=O)C(C(C)c5cccc(F)c5)NC(=O)CNC(=O)C(CO)NC(=O)C(C(O)C5CNC(=N)N5C5OC(CO)C(O)C(O)C5O)NC(=O)C(C(O)C5CNC(=N)N5)NC4=O)cc3)C(O)C2O)OC(CO)C(O)C1O (stereo not drawn) [Example 264a, Cyclo[glycyl-3-fluoro-β-methylphenylalanyl-O-[4-O-[2-O-(3-methylbutanoyl)hexopyranosyl]-hexopyranosyl]tyrosyl-3-(2-iminoimidazolidin-4-yl)seryl-3-(3-hexopyranosyl-2-iminoimidazolidin-4-yl)serylseryl]]
Enterococcus sp.; Enterococcus avium (GC 4558)
  MIC Enterococcus avium (GC 4558): >64 µg/mL
Enterococcus sp.; [1]
  MIC Enterococcus faecalis (ATCC 29212): 64 µg/mL (≈ 45.8 µM)
Enterococcus sp.; [2]
  MIC Enterococcus faecalis (GC 4553): >64 µg/mL
Enterococcus sp.; [3]
  MIC Enterococcus faecalis (GC 4554): >64 µg/mL
Enterococcus sp.; Enterococcus faecium (GC 2243)
  MIC Enterococcus faecium (GC 2243): >64 µg/mL
Enterococcus sp.; Enterococcus faecium (GC 4556)
  MIC Enterococcus faecium (GC 4556): 64 µg/mL (≈ 45.8 µM)
Enterococcus sp.; Enterococcus faecium (GC 4557)
  MIC Enterococcus faecium (GC 4557): 32 µg/mL (≈ 22.9 µM)
Enterococcus sp.; strain ATCC 29212
  MIC Enterococcus faecalis (ATCC 29212): 64 µg/mL (≈ 45.8 µM)
Enterococcus sp.
  MIC Enterococcus faecalis (GC 2242): 64 µg/mL (≈ 45.8 µM)
  MIC Enterococcus faecalis (GC 4552): >64 µg/mL
Enterococcus sp.; strain GC 2243
  MIC Enterococcus faecium (GC 2243): >64 µg/mL
Enterococcus sp.; strain GC 4553
  MIC Enterococcus faecalis (GC 4553): >64 µg/mL
Enterococcus sp.; strain GC 4554
  MIC Enterococcus faecalis (GC 4554): >64 µg/mL
Enterococcus sp.; strain GC 4556
  MIC Enterococcus faecium (GC 4556): 64 µg/mL (≈ 45.8 µM)
Enterococcus sp.; strain GC 4557
  MIC Enterococcus faecium (GC 4557): 32 µg/mL (≈ 22.9 µM)
Enterococcus sp.; strain GC 4558
  MIC Enterococcus avium (GC 4558): >64 µg/mL
Escherichia coli
  MIC Escherichia coli (ATCC 25922): 64 µg/mL (≈ 45.8 µM)
  MIC Escherichia coli (GC 4559): >64 µg/mL
  MIC Escherichia coli (GC 4560): 4 µg/mL (≈ 2.86 µM)
Staphylococcus sp.
  MIC Coagulase Negative Staphylococcus (GC 4547): 8 µg/mL (≈ 5.72 µM)
  MIC Coagulase Negative Staphylococcus (GC 4548): 4 µg/mL (≈ 2.86 µM)
  MIC Coagulase Negative Staphylococcus (GC 4549): 4 µg/mL (≈ 2.86 µM)
  MIC Coagulase Negative Staphylococcus (GC 4551): 16 µg/mL (≈ 11.4 µM)
  MIC Staphylococcus aureus (ATCC 29213): 16 µg/mL (≈ 11.4 µM)
  MIC Staphylococcus aureus (GC 1131): 16 µg/mL (≈ 11.4 µM)
  MIC Staphylococcus aureus (GC 4541): 16 µg/mL (≈ 11.4 µM)
  MIC Staphylococcus aureus (GC 4542): 16 µg/mL (≈ 11.4 µM)
  MIC Staphylococcus aureus (GC 4544): 8 µg/mL (≈ 5.72 µM)
  MIC Staphylococcus aureus (GC 4545): 8 µg/mL (≈ 5.72 µM)
  MIC Staphylococcus aureus-SMITH (GC 4543): 8 µg/mL (≈ 5.72 µM)
  MIC Staphylococcus haemolyticus (GC 4546): 8 µg/mL (≈ 5.72 µM)
Staphylococcus sp.; strain ATCC 29213
  MIC Staphylococcus aureus (ATCC 29213): 16 µg/mL (≈ 11.4 µM)
Staphylococcus sp.; strain GC 1131
  MIC Staphylococcus aureus (GC 1131): 16 µg/mL (≈ 11.4 µM)
Staphylococcus sp.; strain GC 4541
  MIC Staphylococcus aureus (GC 4541): 16 µg/mL (≈ 11.4 µM)
Staphylococcus sp.; strain GC 4542
  MIC Staphylococcus aureus (GC 4542): 16 µg/mL (≈ 11.4 µM)
Staphylococcus sp.; strain GC 4544
  MIC Staphylococcus aureus (GC 4544): 8 µg/mL (≈ 5.72 µM)
Staphylococcus sp.; strain GC 4545
  MIC Staphylococcus aureus (GC 4545): 8 µg/mL (≈ 5.72 µM)
Staphylococcus sp.; strain GC 4546
  MIC Staphylococcus haemolyticus (GC 4546): 8 µg/mL (≈ 5.72 µM)
Staphylococcus sp.; strain GC 4547
  MIC Coagulase Negative Staphylococcus (GC 4547): 8 µg/mL (≈ 5.72 µM)
Staphylococcus sp.; strain GC 4548
  MIC Coagulase Negative Staphylococcus (GC 4548): 4 µg/mL (≈ 2.86 µM)
Staphylococcus sp.; strain GC 4549
  MIC Coagulase Negative Staphylococcus (GC 4549): 4 µg/mL (≈ 2.86 µM)
Staphylococcus sp.; strain GC 4551
  MIC Coagulase Negative Staphylococcus (GC 4551): 16 µg/mL (≈ 11.4 µM)
Staphylococcus sp.; strain SMITH GC 4543
  MIC Staphylococcus aureus-SMITH (GC 4543): 8 µg/mL (≈ 5.72 µM)
Streptococcus sp.
  MIC Streptococcus agalactiae (GC 4564): 8 µg/mL (≈ 5.72 µM)
Streptococcus sp.; strain ID-3187
  MIC Streptococcus pyogenes (ID-3187): 4 µg/mL (≈ 2.86 µM)

From US6914045B2, “Glycopeptide antibiotics” (Wyeth Holdings Corporation, priority 2001, dated 2005)
